Our source for the GI50 and TGI values is PubChem BioAssay (NCI).

“And” between values parts separate entries of the source, which are not always exact repeats. Identical values can stand only once.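 A five-concentration, 48-hour dose response in 96-well plates underlies each endpoint, interpolated linearly between surrounding concentrations. The concentration for 50% growth inhibition is given as GI50. TGI: total growth inhibition.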

Among the test systems are CAKI-1 renal; HCC-2998 colon; U251 CNS; SW-620 colon; SK-MEL-5 melanoma; UACC-257 melanoma; MOLT-4 leukemia; HOP-62 NSCLC; SF-268 CNS; OVCAR-4 ovarian.
Common to all, as to assay: DTP human tumour cell line panel, 48 h

`CN(C)CCCOc1ccccc1NC1=C(Cl)C(=O)C(Nc2ccccc2OCCCN(C)C)=C(Cl)C1=O`: the GI50 in the assay on CAKI-1 renal was 1.07 µM; in the assay with HCC-2998 colon it was 0.604 µM; with U251 CNS, 0.611 µM; with SW-620 colon it was 0.207 µM; with SK-MEL-5 melanoma, 1.35 µM; in the assay on UACC-257 melanoma, 1.17 µM. Also, the GI50 in the assay with MOLT-4 leukemia is 0.223 µM; in the assay with HOP-62 NSCLC, 1.66 µM; with SF-268 CNS, 1.03 µM; with OVCAR-4 ovarian, 0.136 µM. The TGI was 2.27 µM with CAKI-1 renal; 1.31 µM in the assay on HCC-2998 colon; 1.3 µM with U251 CNS; 0.415 µM in the assay with SW-620 colon; 2.65 µM with SK-MEL-5 melanoma; 2.69 µM in the assay on UACC-257 melanoma. Besides, the TGI came out at 0.578 µM with MOLT-4 leukemia, 3.31 µM in the assay on HOP-62 NSCLC, 2.61 µM in the assay on SF-268 CNS and 0.265 µM in the assay with OVCAR-4 ovarian.
Regarding `Cc1nc2sccn2c1/C=C1/C(=O)Nc2ccccc21`, the GI50 in the assay with CAKI-1 renal was 2.98 µM; with HCC-2998 colon, 1.13 µM; with U251 CNS, 4.96 µM; in the assay on SW-620 colon, 3.06 µM; in the assay with SK-MEL-5 melanoma, 3.37 µM; in the assay on UACC-257 melanoma, above 100 µM. Also, the GI50 is 4.83 µM with MOLT-4 leukemia, 5.13 µM in the assay with HOP-62 NSCLC, 52 µM with SF-268 CNS and above 29.6 µM with OVCAR-4 ovarian. For the same compound, the TGI in the assay with CAKI-1 renal is above 100 µM; in the assay on HCC-2998 colon it was 27.2 µM; in the assay with U251 CNS, above 74.3 µM; with SW-620 colon it was above 100 µM; in the assay with SK-MEL-5 melanoma, above 62.9 µM; with UACC-257 melanoma, above 100 µM. For the same compound, the TGI is above 31.6 µM in the assay on MOLT-4 leukemia, above 100 µM in the assay with HOP-62 NSCLC, above 100 µM in the assay with SF-268 CNS and above 100 µM in the assay with OVCAR-4 ovarian.
For `O=C(O)c1ccccc1Cc1ccco1`, the TGI in the assay on CAKI-1 renal, in the assay with HCC-2998 colon, in the assay on U251 CNS, in the assay with SW-620 colon, in the assay on SK-MEL-5 melanoma and with UACC-257 melanoma was above 100 µM each time. For the same compound, the TGI in the assay on MOLT-4 leukemia, in the assay on HOP-62 NSCLC, in the assay on SF-268 CNS and with OVCAR-4 ovarian was above 100 µM in each case.
Turning to `Cc1ccc(NCCCN2CCN(CCCNc3ccc(C)c4sc5ccccc5c(=O)c34)CC2)c2c(=O)c3ccccc3sc12`, the TGI with CAKI-1 renal, in the assay with HCC-2998 colon, in the assay on U251 CNS, with SW-620 colon, in the assay on SK-MEL-5 melanoma and in the assay with UACC-257 melanoma was above 100 µM in each case. In addition, the concentration for total growth inhibition (TGI) with MOLT-4 leukemia, in the assay with HOP-62 NSCLC, in the assay with SF-268 CNS and with OVCAR-4 ovarian was above 100 µM each time.
Turning to `Nc1ccn(C2OC(CO)C(O)C2F)c(=O)n1` (centres undefined), the GI50 with CAKI-1 renal is 582 µM and > 5000 µM; in the assay on HCC-2998 colon it was above 5000 µM; in the assay with U251 CNS it was above 5000 µM; in the assay on SW-620 colon, above 5000 µM; in the assay with SK-MEL-5 melanoma, above 5000 µM; in the assay with UACC-257 melanoma, above 5000 µM. In addition, the GI50 with MOLT-4 leukemia is 2.98 µM; in the assay with HOP-62 NSCLC it was above 5000 µM; in the assay with SF-268 CNS it was above 5000 µM; in the assay on OVCAR-4 ovarian it was above 5000 µM. For the same compound, the TGI with CAKI-1 renal, in the assay with HCC-2998 colon, in the assay with U251 CNS, with SW-620 colon, with SK-MEL-5 melanoma and in the assay with UACC-257 melanoma was above 5000 µM each time. In addition, the TGI in the assay on HOP-62 NSCLC, in the assay on SF-268 CNS and in the assay with OVCAR-4 ovarian was above 5000 µM each time.
As to `COc1cccc(C2CC(c3cc(OC)c(OC)c(OC)c3)=NN2)c1` (centres undefined), the GI50 with CAKI-1 renal is 14.7 µM; with HCC-2998 colon, 4.78 µM; in the assay on U251 CNS, 10 µM; in the assay with SW-620 colon it was 3.05 µM; with SK-MEL-5 melanoma, 11.8 µM; with UACC-257 melanoma it was 12.7 µM. Also, the GI50 was 6.17 µM in the assay with MOLT-4 leukemia, 8.99 µM in the assay with HOP-62 NSCLC, 13.6 µM with SF-268 CNS and 23.5 µM with OVCAR-4 ovarian. The TGI in the assay on CAKI-1 renal was found to be 50.5 µM; with HCC-2998 colon, 18.3 µM; in the assay on U251 CNS it was 22.8 µM; in the assay with SW-620 colon, 11.5 µM; in the assay on SK-MEL-5 melanoma, 24 µM; with UACC-257 melanoma it was 36.4 µM. Besides, the TGI was 41.4 µM in the assay on MOLT-4 leukemia, 71.4 µM in the assay with HOP-62 NSCLC, 81.2 µM in the assay with SF-268 CNS and above 100 µM in the assay on OVCAR-4 ovarian.
For the compound `C=CCC1OC(C)(C)Oc2ccc(OCOCCOC)cc21` (centres undefined), the TGI in the assay with CAKI-1 renal, in the assay on HCC-2998 colon, with U251 CNS, in the assay with SW-620 colon, in the assay on SK-MEL-5 melanoma and in the assay on UACC-257 melanoma was above 100 µM each time. Further, the TGI with MOLT-4 leukemia, with HOP-62 NSCLC, in the assay with SF-268 CNS and in the assay on OVCAR-4 ovarian was above 100 µM in each case.
On to `C(=Nc1ccccc1)C1CCCC[N-]1.C(=Nc1ccccc1)C1CCCC[N-]1.[Cu+2].[O-][Cl+3]([O-])([O-])O` (centres undefined), for which the GI50 with CAKI-1 renal is 3.96 µM; with HCC-2998 colon, 2.4 µM; with U251 CNS it was 10.7 µM; in the assay with SW-620 colon it was 10.4 µM; in the assay on SK-MEL-5 melanoma it was 8.64 µM; in the assay with UACC-257 melanoma, above 37.7 µM. Besides, the GI50 in the assay with MOLT-4 leukemia is 4.16 µM; in the assay on HOP-62 NSCLC it was 15.5 µM; with SF-268 CNS, 26.9 µM; in the assay on OVCAR-4 ovarian, 26 µM. Further, the TGI in the assay on CAKI-1 renal was 16.6 µM; in the assay with HCC-2998 colon, 24.4 µM; in the assay with U251 CNS, 30.4 µM; in the assay on SW-620 colon it was 32.4 µM; in the assay with SK-MEL-5 melanoma, 27.7 µM; with UACC-257 melanoma, above 55.2 µM. Moreover, the TGI is 11.7 µM in the assay on MOLT-4 leukemia, 54.6 µM in the assay with HOP-62 NSCLC, above 89.6 µM in the assay on SF-268 CNS and 84.4 µM in the assay with OVCAR-4 ovarian.
